In patent US20240246937A1 (MERCK SHARP & DOHME LLC, priority 2021, published 2024):

biological target: recombinant IL4I1 (Homo sapiens (Human), UniProt Q96RQ9); experiment: IL4I1 Enzymatic Assay (Amplex Red/HRP coupled fluorescence detection of H2O2); type: biochemical; conditions: 240 min; recombinant IL4I1, four-hour pre-incubation with compound
Procedure, shortened: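 Recombinant human IL4I1 (1 nM final) pre-incubated 4 h with compound at ambient temperature in 50 mM Hepes pH 7.0, 0.005% Tween20. Started with 1 mM each Phe/Tyr/Trp plus Amplex Red/HRP; H2O2-derived resorufin fluorescence read after 120 min; EC50 from ten-point 1:3 titration, four-parameter fit.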

Chain of recombinant IL4I1 (Q96RQ9 22-567): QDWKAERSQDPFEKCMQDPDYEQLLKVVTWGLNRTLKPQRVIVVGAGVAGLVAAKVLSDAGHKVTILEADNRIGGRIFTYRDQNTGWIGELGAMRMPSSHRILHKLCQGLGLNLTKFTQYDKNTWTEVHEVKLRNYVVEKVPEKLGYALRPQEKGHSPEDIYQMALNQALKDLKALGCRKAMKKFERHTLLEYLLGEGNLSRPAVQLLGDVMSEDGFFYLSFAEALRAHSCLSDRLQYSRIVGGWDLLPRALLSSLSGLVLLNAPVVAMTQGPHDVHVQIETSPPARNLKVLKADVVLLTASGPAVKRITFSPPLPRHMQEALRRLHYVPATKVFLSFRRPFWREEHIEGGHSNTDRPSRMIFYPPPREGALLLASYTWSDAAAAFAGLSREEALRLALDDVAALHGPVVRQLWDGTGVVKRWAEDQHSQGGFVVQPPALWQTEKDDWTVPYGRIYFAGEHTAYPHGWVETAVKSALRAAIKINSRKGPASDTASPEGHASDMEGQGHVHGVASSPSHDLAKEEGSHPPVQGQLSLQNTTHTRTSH

Row | EC50 | Structure (SMILES)
1 | 8 nM | O=C1C(=O)N(C2CCCC2)CCN1Cc1nnc(-c2ccc(F)cc2)s1 [Example 351, 1-cyclopentyl-4-((5-(4-fluorophenyl)-1,3,4-thiadiazol-2-yl)methyl)piperazine-2,3-dione]
2 | 13 nM | CC(Cc1nnc(-c2ccccc2)s1)N1CCN(C2CCCC2)C(=O)C1=O (stereo not drawn) [Example 352, 1-cyclopentyl-4-(1-(5-phenyl-1,3,4-thiadiazol-2-yl)propan-2-yl)piperazine-2,3-dione]
3 | 11 nM | CC(CN1CCN(C2CCCC2)C(=O)C1=O)c1nnc(-c2ccccc2)s1 (stereo not drawn) [Example 353, 1-cyclopentyl-4-(2-(5-phenyl-1,3,4-thiadiazol-2-yl)propyl)piperazine-2,3-dione]
4 | 20 nM | O=C1C(=O)N(C2CCCC2)CCN1Cc1cc2ccccc2[nH]c1=O [Example 354, 1-cyclopentyl-4-((2-oxo-1,2-dihydroquinolin-3-yl)methyl)piperazine-2,3-dione]
5 | 22 nM | C[C@H](c1nnc(-c2ccccc2)s1)N1CCN(C2CCC2)C(=O)C1=O [Example 355, (R)-1-cyclobutyl-4-(1-(5-phenyl-1,3,4-thiadiazol-2-yl)ethyl)piperazine-2,3-dione]
6 | 28 nM | C[C@@H](c1nnc(-c2ccccc2)s1)N1CCN(C2CCC2)C(=O)C1=O [Example 356, (S)-1-cyclobutyl-4-(1-(5-phenyl-1,3,4-thiadiazol-2-yl)ethyl)piperazine-2,3-dione]
7 | 32 nM | CC1CN(C2CCC2)C(=O)C(=O)N1Cc1nnc(-c2ccccc2)s1 (stereo not drawn) [Example 357, 1-cyclobutyl-5-methyl-4-((5-phenyl-1,3,4-thiadiazol-2-yl)methyl)piperazine-2,3-dione]
8 | 2 nM | O=C1C(=O)N(C2CCCC2)CCN1Cc1cc(-c2ccccc2)no1 [Example 358A, 1-cyclopentyl-4-((3-phenylisoxazol-5-yl)methyl)piperazine-2,3-dione]
9 | 1 nM | O=c1c(=O)n(C2CCCC2)ccn1Cc1cc(-c2ccccc2)no1 [Example 358B, 1-cyclopentyl-4-((3-phenylisoxazol-5-yl)methyl)-1,4-dihydropyrazine-2,3-dione]
10 | 22 nM | O=C1C(=O)N(C23CC(C2)C3)CCN1Cc1ccc(-n2nccn2)cn1 [Example 359, 1-((5-(2H-1,2,3-triazol-2-yl)pyridin-2-yl)methyl)-4-(bicyclo[1.1.1]pentan-1-yl)piperazine-2,3-dione]
11 | 16 nM | O=c1c(=O)n(C23CC(C2)C3)ccn1Cc1ccc(-n2nccn2)cn1 [Example 360, 1-((5-(2H-1,2,3-triazol-2-yl)pyridin-2-yl)methyl)-4-(bicyclo[1.1.1]pentan-1-yl)-1,4-dihydropyrazine-2,3-dione]
12 | 96 nM | O=C1C(=O)N(C2CCCC2)CCN1Cc1ncc(-c2nccs2)cn1 [Example 361, 1-cyclopentyl-4-((5-(thiazol-2-yl)pyrimidin-2-yl)methyl)piperazine-2,3-dione]
13 | 22 nM | O=C1C(=O)N(C2CCCC2)CCN1Cc1ccc(-c2nccs2)nn1 [Example 362, 1-cyclopentyl-4-((6-(thiazol-2-yl)pyridazin-3-yl)methyl)piperazine-2,3-dione]
14 | 25 nM | O=C1C(=O)N(C2CCCC2)CCN1Cc1nnc(-c2nccs2)s1 [Example 363, 1-cyclopentyl-4-((5-(thiazol-2-yl)-1,3,4-thiadiazol-2-yl)methyl)piperazine-2,3-dione]
15 | 17 nM | O=C1C(=O)N(C2CCCC2)CCN1Cc1ccc(-c2nccs2)nc1 [Example 364, 1-cyclopentyl-4-((6-(thiazol-2-yl)pyridin-3-yl)methyl)piperazine-2,3-dione]
16 | 17 nM | O=C1C(=O)N(C2CCC2)CCN1Cc1ccc(-c2nccs2)nn1 [Example 365, 1-cyclobutyl-4-((6-(thiazol-2-yl)pyridazin-3-yl)methyl)piperazine-2,3-dione]
17 | 9 nM | O=c1c(=O)n(C23CC(C2)C3)ccn1Cc1ccc(-c2nccs2)nn1 [Example 366, 1-(bicyclo[1.1.1]pentan-1-yl)-4-((6-(thiazol-2-yl)pyridazin-3-yl)methyl)-1,4-dihydropyrazine-2,3-dione]
18 | 9 nM | O=c1c(=O)n(C2CCC2)ccn1Cc1ccc(-c2nccs2)nn1 [Example 367, 1-cyclobutyl-4-((6-(thiazol-2-yl)pyridazin-3-yl)methyl)-1,4-dihydropyrazine-2,3-dione]
19 | 28 nM | O=C1C(=O)N(C2CCCC2)CCN1Cc1ccc(-c2ccccn2)nn1 [Example 368, 1-cyclopentyl-4-((6-(pyridin-2-yl)pyridazin-3-yl)methyl)piperazine-2,3-dione]
20 | 32 nM | O=C1C(=O)N(C2CCC2)CCN1Cc1nnc(-c2ccccn2)s1 [Example 369, 1-cyclobutyl-4-((5-(pyridin-2-yl)-1,3,4-thiadiazol-2-yl)methyl)piperazine-2,3-dione]

Row | EC50 | Structure (SMILES)
21 | 20 nM | O=c1c(=O)n(C2CCC2)ccn1Cc1nnc(-c2ccccn2)s1 [Example 370, 1-cyclobutyl-4-((5-(pyridin-2-yl)-1,3,4-thiadiazol-2-yl)methyl)-1,4-dihydropyrazine-2,3-dione]
22 | 42 nM | O=c1c(=O)n([C@H]2C[C@H]3C[C@H]3C2)ccn1Cc1ncc(-c2nccs2)cc1F [Example 371, 1-((cis)-bicyclo[3.1.0]hexan-3-yl)-4-((3-fluoro-5-(thiazol-2-yl)pyridin-2-yl)methyl)-1,4-dihydropyrazine-2,3-dione]
23 | 23 nM | O=c1c(=O)n([C@H]2C[C@@H](c3ccccc3)C2)ccn1Cc1nnc(-c2nccs2)s1 [Example 372, 1-((cis)-3-phenylcyclobutyl)-4-((5-(thiazol-2-yl)-1,3,4-thiadiazol-2-yl)methyl)-1,4-dihydropyrazine-2,3-dione]
24 | 8 nM | O=c1c(=O)n(C2CCC2)ccn1Cc1cc(-c2ccccn2)on1 [Example 373, 1-cyclobutyl-4-((5-(pyridin-2-yl)isoxazol-3-yl)methyl)-1,4-dihydropyrazine-2,3-dione]
25 | 8 nM | O=C1C(=O)N([C@H]2C[C@H]3C[C@H]3C2)CCN1Cc1ccc(-c2nccs2)nn1 [Example 374, 1-((cis)-bicyclo[3.1.0]hexan-3-yl)-4-((6-(thiazol-2-yl)pyridazin-3-yl)methyl)piperazine-2,3-dione]
26 | 6 nM | O=c1c(=O)n([C@H]2C[C@H]3C[C@H]3C2)ccn1Cc1cc(-c2ccccn2)on1 [Example 375, 1-((cis)-bicyclo[3.1.0]hexan-3-yl)-4-((5-(pyridin-2-yl)isoxazol-3-yl)methyl)-1,4-dihydropyrazine-2,3-dione]
27 | 14 nM | O=C1C(=O)N(C2CCC2)CCN1Cc1ncc(-c2ccccn2)s1 [Example 376, 1-cyclobutyl-4-((5-(pyridin-2-yl)thiazol-2-yl)methyl)piperazine-2,3-dione]
28 | 71 nM | CC1(n2ccn(Cc3ccc(-c4nccs4)nn3)c(=O)c2=O)CC1 [Example 377, 1-(1-methylcyclopropyl)-4-((6-(thiazol-2-yl)pyridazin-3-yl)methyl)-1,4-dihydropyrazine-2,3-dione]
29 | 138 nM | O=C1C(=O)N(C2CCCC2)CCN1Cc1ncc(-n2nccn2)cn1 [Example 378, 1-((5-(2H-1,2,3-triazol-2-yl)pyrimidin-2-yl)methyl)-4-cyclopentylpiperazine-2,3-dione]
30 | 24 nM | O=C1C(=O)N(C2CCCC2)CCN1Cc1ccc(-n2nccn2)cc1F [Example 379, 1-cyclopentyl-4-(2-fluoro-4-(2H-1,2,3-triazol-2-yl)benzyl)piperazine-2,3-dione]
31 | 17 nM | O=C1C(=O)N(C2CCCC2)CCN1Cc1ccc(-n2nccn2)cn1 [Example 380, 1-((5-(2H-1,2,3-triazol-2-yl)pyridin-2-yl)methyl)-4-cyclopentylpiperazine-2,3-dione]
32 | 40 nM | CC1(n2ccn(Cc3ccc(-n4cccn4)cn3)c(=O)c2=O)CC1 [Example 381, 1-((5-(1H-pyrazol-1-yl)pyridin-2-yl)methyl)-4-(1-methylcyclopropyl)-1,4-dihydropyrazine-2,3-dione]
33 | 25 nM | O=c1c(=O)n(C23CC(C2)C3)ccn1Cc1ccc(-n2cccn2)cn1 [Example 382, 1-((5-(1H-pyrazol-1-yl)pyridin-2-yl)methyl)-4-(bicyclo[1.1.1]pentan-1-yl)-1,4-dihydropyrazine-2,3-dione]
34 | 26 nM | CC1(n2ccn(Cc3ccc(-n4cccn4)nc3)c(=O)c2=O)CC1 [Example 383, 1-((6-(1H-pyrazol-1-yl)pyridin-3-yl)methyl)-4-(1-methylcyclopropyl)-1,4-dihydropyrazine-2,3-dione]
35 | 9 nM | O=c1c(=O)n(C23CC(C2)C3)ccn1Cc1ccc(-n2cccn2)nc1 [Example 384, 1-((6-(1H-pyrazol-1-yl)pyridin-3-yl)methyl)-4-(bicyclo[1.1.1]pentan-1-yl)-1,4-dihydropyrazine-2,3-dione]
36 | 42 nM | CC1(n2ccn(Cc3ccc(-n4ccnn4)cn3)c(=O)c2=O)CC1 [Example 385, 1-((5-(1H-1,2,3-triazol-1-yl)pyridin-2-yl)methyl)-4-(1-methylcyclopropyl)-1,4-dihydropyrazine-2,3-dione]
37 | 225 nM | N#CC1(n2ccn(Cc3ccc(-n4cccn4)cn3)c(=O)c2=O)CC1 [Example 386, 1-(4-((5-(1H-pyrazol-1-yl)pyridin-2-yl)methyl)-2,3-dioxo-3,4-dihydropyrazin-1(2H)-yl)cyclopropane-1-carbonitrile]
38 | 677 nM | N#CC1(n2ccn(Cc3ccc(-n4ccnn4)cn3)c(=O)c2=O)CC1 [Example 387, 1-(4-((5-(1H-1,2,3-triazol-1-yl)pyridin-2-yl)methyl)-2,3-dioxo-3,4-dihydropyrazin-1(2H)-yl)cyclopropane-1-carbonitrile]
39 | 23 nM | O=c1c(=O)n(C23CC(C2)C3)ccn1Cc1ccc(-n2ccnn2)cn1 [Example 388, 1-((5-(1H-1,2,3-triazol-1-yl)pyridin-2-yl)methyl)-4-(bicyclo[1.1.1]pentan-1-yl)-1,4-dihydropyrazine-2,3-dione]
